Results from patent US20130023553A1, “PEGYLATED OPIOIDS WITH LOW POTENTIAL FOR ABUSE AND SIDE EFFECTS” (Nektar Therapeutics, priority 2010, published 2013).
Like-named read-outs stand apart in the source and are kept apart here.

What was measured:
[1] = Pharmacokinetics following oral (PO) dosing; format: in vivo, Sprague-Dawley rats; parameters: Cmax: unit: ng/mL
Excerpt: (§1) There were 3 rats/group. All animals were food fasted overnight. […] The predose sample was collected from the JVC.
(§2) Following the last collection point, the animals were euthanized.

[2] = Pharmacokinetics following intravenous (IV) dosing; format: in vivo, Sprague-Dawley rats; parameters: Cmax: unit: ng/mL; details: for Vd: read-out: Vss
Excerpt: as §1, §2

[3] = molecular target: T1, human mu opioid receptor (Homo sapiens, UniProt P35372); assay: cell-based; details: for Emax: read-out: % max effect, mu opioid receptor
T1 construct: expressed in transfected cells; host or cells: CHO cells
Procedure: Studies were conducted in CHO cells heterologously expressing the cloned human mu, kappa or delta opioid receptors. cAMP was measured using a cAMP HiRange homogenous time-resolved fluorescence assay (HTRF Assay), that is based on a competitive immunoassay principle (Cisbio, Cat.#62AM6PEC).
Briefly, suspensions of cells expressing either the mu, kappa or delta opioid receptors were prepared in buffer containing 0.5 mM isobutyl-methyl xanthine (IBMX). […] EC50 values were calculated for each compound from a sigmoidal dose-response plot of concentrations versus maximum response. To determine if the compounds behaved as full or partial agonists in the system, the maximal response at the highest tested concentrations of compounds were compared to that produced by a known full agonist.

[4] = molecular target: T1, human mu opioid receptor; assay: biochemical; format: binding
Procedure: Radioligand displacement was measured using scintillation proximity assays (SPA).
Briefly, serial dilutions of the test compounds were placed in a 96-well plate to which were added SPA beads, membrane and radioligand. The assay conditions for each opioid receptor subtype are described in Table 10 below. The plates were incubated for 8 hours-overnight at room temperature, spun at 1000 rpm to pellet the SPA beads, and radioactivity was measured using the TopCount® microplate Scintillation counter. Specific binding at each concentration of test compound was calculated by subtracting the non-specific binding measured in the presence of excess cold ligand. IC50 values were obtained by non-linear regression of specific binding versus concentration curves and Ki values were calculated using Kd values that were experimentally pre-determined for each lot of membrane preparations.

[5] = test system: squirrel monkeys; assay: Monkey self-administration model of addictive potential
Excerpt: Dose-related effects of the test articles were examined, using two or more doses of each drug in 3-4 subjects in a double alternation schedule in which each unit dose (or vehicle) was used in two consecutive sessions before a change in unit dose.
Addictive potential of opioid compounds and opioid conjugates of the invention may be assessed through the use of squirrel monkey models as known in the art.
Under the double alternation schedule, each unit dose (or vehicle) was available for intravenous self-administration for two consecutive sessions before the unit dose was changed. In this way, it was possible to establish the function relating unit dose of intravenous drug to (i) number of injections per session, and/or (ii) the percentage of total responses that occur on the lever leading to self-administration (injection-lever responding, % ILR). Unit doses of drugs ranged from 0.01 to 3.2 mg/kg/injection.

[6] = codeine series, 5 mg/kg oral, Mean ± SD
[7] = read-out: EC50, mu opioid receptor
[8] = maximal response at the highest tested concentration
[9] = male, Sprague-Dawley, rat, plasma, po, 5 mg/kg
[10] = male, Sprague-Dawley, rat, plasma, hydroxycodone series, 5.0 mg/kg oral, Mean ± SD
[11] = male, Sprague-Dawley, rat, plasma, hydroxycodone series, 1 mg/kg IV, Mean ± SD
[12] = male, Sprague-Dawley, rat, plasma, hydroxycodone series, 1 mg/kg IV, Mean ± SD, read-out: Cmax
[13] = male, Sprague-Dawley, rat, plasma, hydroxycodone series, 1 mg/kg IV, Mean ± SD, read-out: T1/2(z)
[14] = CHO-K1 membranes, [3H]DAMGO 6 nM, read-out: Ki, Mu opioid receptor
[15] = male, Sprague-Dawley, rat, plasma, iv, 1 mg/kg

T1 sequence (P35372 whole entry): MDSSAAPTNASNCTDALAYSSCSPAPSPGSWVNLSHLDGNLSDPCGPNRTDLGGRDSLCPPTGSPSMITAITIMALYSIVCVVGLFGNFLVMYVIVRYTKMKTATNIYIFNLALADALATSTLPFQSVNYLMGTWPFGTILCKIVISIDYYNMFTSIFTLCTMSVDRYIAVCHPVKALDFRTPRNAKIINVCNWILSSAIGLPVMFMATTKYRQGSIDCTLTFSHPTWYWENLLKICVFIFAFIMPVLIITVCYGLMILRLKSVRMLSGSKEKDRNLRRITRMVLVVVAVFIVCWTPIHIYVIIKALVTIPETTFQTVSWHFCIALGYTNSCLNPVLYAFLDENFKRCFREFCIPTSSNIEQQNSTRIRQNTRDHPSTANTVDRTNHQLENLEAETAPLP

Structure (SMILES): COc1ccc2c3c1O[C@H]1[C@@H](O)C=C[C@H]4[C@@H](C2)N(C)CC[C@@]341 [Codeine, codeine, reference compound]
- AUCall [1, 6]: 328 ± 216 ng·min/mL
- Cmax [1, 6]: 6.24 ± 2.51 ng/mL
- MRTlast [1, 6]: 33.2 ± 12.9 min
- AUCinf ([1]; codeine series, 5 mg/kg oral, Mean ± SD, # n = 1, * n = 2): 431^# min · ng/mL
- Tmax ([1]; codeine series, 5 mg/kg oral, median value): 15.0 min
- F % ([1]; codeine series, oral bioavailability, 5 mg/kg oral vs 1 mg/kg IV): 0.60%
- AUCall ([2]; codeine series, 1 mg/kg IV): 11000 ± 1600 ng·min/mL
- AUCinf ([2]; codeine series, 1 mg/kg IV): 11400 ± 2070 ng·min/mL
- CL ([2]; codeine series, 1 mg/kg IV): 89.7 ± 15.3 mL/min/kg
- Cmax ([2]; codeine series, 1 mg/kg IV): 469 ± 20.4 ng/mL
- MRTlast ([2]; codeine series, 1 mg/kg IV): 40.2 ± 9.08 min
- Vss ([2]; codeine series, 1 mg/kg IV): 4.14 ± 0.700 L/kg

Structure (SMILES): COc1ccc2c3c1OC1C(O)CCC4(O)C(C2)N(C)CCC314 (stereo not drawn) [Hydroxycodone, α-6-hydroxycodone, reference compound]
- EC50 [3, 7]: 3160 nM

Structure (SMILES): COCCOC1C=CC2C3Cc4ccc(O)c5c4C2(CCN3C)C1O5 (stereo not drawn) [α-6-mPEG1-O-morphine]
- EC50 [3]: 85 nM
- Emax [3]: 91%
- Ki [4]: 15.7 nM

Structure (SMILES): COCCOCCOC1CCC2(O)C3Cc4ccc(OC)c5c4C2(CCN3C)C1O5 (stereo not drawn) [α-6-mPEG2-O-hydroxycodone, α-6-mPEG2-O-oxycodone]
- Emax [3, 8]: 101%
- EC50 [3, 7]: 5010 nM
- bioavailability [1, 9]: 9.4%
- AUC [1, 10]: 98.5 ng·h/mL
- MRT last [1, 10]: 55.4 min
- AUC(0-inf) ([1]; male, Sprague-Dawley, rat, plasma, hydroxycodone series, 5.0 mg/kg oral, Mean ± SD, * n = 2): 97.2 ng·h/mL
- half-life ([1]; male, Sprague-Dawley, rat, plasma, hydroxycodone series, 5.0 mg/kg oral, Mean ± SD, * n = 2, read-out: T1/2(z)): 48.5 ± 12 min
- Cmax ([1]; male, Sprague-Dawley, rat, plasma, hydroxycodone series, 5.0 mg/kg oral, Mean ± SD, read-out: Cmax): 99.4 ± 47.3 ng/mL
- Tmax ([1]; male, Sprague-Dawley, rat, plasma, hydroxycodone series, 5.0 mg/kg oral, median value, read-out: Tmax (converted)): 15 min
- AUC [2, 11]: 200 ng·h/mL
- AUC(0-inf) [2, 11]: 203 ng·h/mL
- MRT last [2, 11]: 37 min
- clearance [2, 11]: 83.3 ± 10.8 mL/min/kg
- Cmax [2, 12]: 513 ± 48.8 ng/mL
- half-life [2, 13]: 44.6 ± 1.8 min
- Vd [2, 11]: 3.36 ± 0.298 L/kg
- Ki [4, 14]: 632 nM

Structure (SMILES): COCCOCCOC1C=CC2C3Cc4ccc(O)c5c4C2(CCN3C)C1O5 (stereo not drawn) [α-6-mPEG2-O-morphine]
- EC50 [3]: 93.3 nM
- Emax [3]: 91%
- Ki [4]: 22 nM

Structure (SMILES): COCCOCCOCCOC1C=CC2C3Cc4ccc(OC)c5c4C2(CCN3C)C1O5 (stereo not drawn) [α-6-mPEG3-O-codeine]
- Emax [3, 8]: 91%
- AUC [1, 9]: 32 ng·h/mL
- AUC(0-inf) [1, 9]: 34.7 ng·h/mL
- MRT last [1, 9]: 71 min
- bioavailability [1, 9]: 2.39%
- Cmax ([1]; male, Sprague-Dawley, rat, plasma, po, 5 mg/kg, read-out: Cmax): 25 ± 6.59 ng/mL
- half-life ([1]; male, Sprague-Dawley, rat, plasma, po, 5 mg/kg, read-out: T1/2(2)): 125 ± 64.6 min
- Tmax ([1]; male, Sprague-Dawley, rat, plasma, po, 5 mg/kg, read-out: Tmax (converted)): 15 min
- AUC [2, 15]: 288 ng·h/mL
- AUC(0-inf) [2, 15]: 290 ng·h/mL
- MRT last [2, 15]: 33.8 min
- clearance [2, 15]: 57.7 ± 4.89 mL/min/kg
- Cmax ([2]; male, Sprague-Dawley, rat, plasma, iv, 1 mg/kg, read-out: Cmax): 732 ± 27.1 ng/mL
- half-life ([2]; male, Sprague-Dawley, rat, plasma, iv, 1 mg/kg, read-out: T1/2(2)): 39.4 ± 1.49 min
- Vd [2, 15]: 2.07 ± 0.127 L/kg
- Ki [4, 14]: 4260 nM

Structure (SMILES): COCCOCCOCCOC1CCC2(O)C3Cc4ccc(OC)c5c4C2(CCN3C)C1O5 (stereo not drawn) [α-6-mPEG3-O-hydroxycodone, α-6-mPEG3-O-oxycodone]
- Emax [3, 8]: 108%
- EC50 [3, 7]: 2830 nM
- subjects showing addictive behavior ([5]; 0.1 mg/kg/injection): 25%
- subjects showing addictive behavior ([5]; 0.3 mg/kg/injection): 50%
- subjects showing addictive behavior ([5]; 1 mg/kg/injection): 100%
- AUC [2, 11]: 230 ng·h/mL
- AUC(0-inf) [2, 11]: 233 ng·h/mL
- MRT last [2, 11]: 32.5 min
- clearance [2, 11]: 71.7 ± 4.99 mL/min/kg
- Cmax [2, 12]: 746 ± 2.08 ng/mL
- half-life [2, 13]: 48.5 ± 7.83 min
- Vd [2, 11]: 2.62 ± 0.206 L/kg
- Ki [4, 14]: 775 nM

Structure (SMILES): COCCOCCOCCOC1C=CC2C3Cc4ccc(O)c5c4C2(CCN3C)C1O5 (stereo not drawn) [α-6-mPEG3-O-morphine]
- EC50 [3]: 270 nM
- Emax [3]: 100%
- subjects showing addictive behavior ([5]; 0.1 mg/kg/injection): 33%
- subjects showing addictive behavior ([5]; 0.3 mg/kg/injection): all animals
- Ki [4]: 50.7 nM
